ChEMBL document CHEMBL5500423, “More than an Amide Bioisostere: Discovery of 1,2,4-Triazole-containing Pyrazolo[1,5-a]pyrimidine Host CSNK2 Inhibitors for Combatting β-Coronavirus Replication” (J Med Chem, 2024)

Legend:
[1] = target: Casein kinase II subunit alpha' (Homo sapiens, UniProt P19784); experiment: Inhibition of NLuc-fused CSNK2A2 (unknown origin) expressed in HEK293 cells incubated for 2 hrs by NanoBRET assay; type: cell-based
[2] = test system: Murine hepatitis virus; experiment: Antiviral activity against Murine hepatitis virus infected in mouse DBT cells preincubated with cells for 1 hrs followed by viral infection and measured after 10 hrs by luminometer; type: functional, organism-based; conditions: Murine coronavirus
[3] = Kinetic solubility of compound in PBS at pH 7.4 incubated for 24 hrs by HPLC analysis; type: physicochemical; conditions: buffer, pH 7.4, 24 h
[4] = Cytotoxicity against human A549-ACE2 cells assessed as cell viability at 1 uM incubated for 48 hrs by CellTiter-Glo2 assay relative to control; type: toxicity, cell-based; conditions: a549-ace2, 48 h
[5] = Cytotoxicity against human A549-ACE2 cells assessed as cell viability at 0.1 uM incubated for 48 hrs by CellTiter-Glo2 assay relative to control; type: toxicity, cell-based; conditions: a549-ace2, 48 h

Casein kinase II subunit alpha', sequence (P19784 whole entry, the tested form may be a part): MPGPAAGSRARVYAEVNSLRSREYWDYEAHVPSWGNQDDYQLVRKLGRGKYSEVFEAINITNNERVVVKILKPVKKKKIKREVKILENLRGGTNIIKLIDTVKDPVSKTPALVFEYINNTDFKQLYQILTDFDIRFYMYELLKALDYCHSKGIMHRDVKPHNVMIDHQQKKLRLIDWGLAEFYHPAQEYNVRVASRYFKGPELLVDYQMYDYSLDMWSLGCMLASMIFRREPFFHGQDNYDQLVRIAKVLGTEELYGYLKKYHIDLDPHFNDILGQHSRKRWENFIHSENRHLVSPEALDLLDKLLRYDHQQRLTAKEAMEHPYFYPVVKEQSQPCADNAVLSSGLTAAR

SMILES | IC50 [1] [µM] | IC50 [2] [µM] | Kinetic_solubility [3] [µg/mL] | Activity [4] [%] | Activity [5] [%]
N#Cc1cnn2c(NCC3CCOCC3)cc(Nc3cccc(-n4cnnc4)c3)nc12 | > 10 | > 10 |  |  | 
CN(C)CCn1cnc(Nc2cc(Nc3cccc(-n4cnnc4)c3)nc3c(C#N)cnn23)c1 | 0.501 | > 10 | 30 |  | 
CN1CCN(c2ccc(Nc3cc(NC4CC4)n4ncc(C#N)c4n3)cc2-n2cnnc2)CC1 | 0.158 | 5.01 | 0.2 |  | 
CN(CCN)c1ccc(Nc2cc(NC3CC3)n3ncc(C#N)c3n2)cc1-n1cnnc1 | 0.251 | 0.398 | 45 | 87 | 99
N#Cc1cnn2c(NC3CC3)cc(Nc3cc(-n4cnnc4)ccc3F)nc12 | 0.00316 | 0.00631 | 1.5 | 59 | 86
CN(CCN)c1cc(F)c(Nc2cc(NC3CC3)n3ncc(C#N)c3n2)cc1-n1cnnc1 | 1 | 2.51 | 41 |  | 
Cn1cc(CNc2cc(Nc3cccc(-n4cnnc4)c3)nc3c(C#N)cnn23)cn1 | > 10 | > 10 |  |  | 
N#Cc1cnn2c(NCCO)cc(Nc3cccc(-n4cnnc4)c3)nc12 | > 10 | > 10 |  |  | 
N#Cc1cnn2c(NC3CC3)cc(Nc3cc(-n4cnnc4)ccn3)nc12 | 0.01 | 0.158 | 1.2 | 96 | 
CNCCn1ccc(Nc2cc(Nc3cccc(-n4cnnc4)c3)nc3c(C#N)cnn23)n1 | 0.0794 | > 10 | 2.1 |  | 
N#Cc1cnn2c(NC3CCC3)cc(Nc3cccc(-n4cnnc4)c3)nc12 | 0.00794 | 0.0794 | 0.18 | 93 | 
N#Cc1cnn2c(Nc3ccn(CCN4CCCC4)n3)cc(Nc3cccc(-n4cnnc4)c3)nc12 | 0.0251 | 1.58 | 35 |  | 
Cn1cnc(Nc2cc(Nc3cccc(-n4cnnc4)c3)nc3c(C#N)cnn23)c1 | 0.0794 | 0.794 | 3.1 |  | 
CCN(CC)CCN(C)c1ccc(Nc2cc(NC3CC3)n3ncc(C#N)c3n2)cc1-n1cnnc1 | 0.1 | 0.794 | 60 | 100 | 98
N#Cc1cnn2c(NC3CC3)cc(Nc3cccc(-n4cnnc4)c3)nc12 | 0.00398 | 0.0398 | 0.47 | 85 | 100
N#Cc1cnn2c(NC3CC3)cc(Nc3ccc(N4CCOCC4)c(-n4cnnc4)c3)nc12 |  | 0.126 | 1.1 |  | 
N#Cc1cnn2c(Nc3ccn(CCN4CCOCC4)n3)cc(Nc3cccc(-n4cnnc4)c3)nc12 | 0.0794 | 1 | 4 |  | 

More lines, main results first:

IC50 [1] [µM] | IC50 [2] [µM] | Kinetic_solubility [3] [µg/mL] | SMILES | Activity [4] [%] | Activity [5] [%]
> 10 | > 10 |  | N#Cc1cnn2c(NC3CC3)cc(Nc3cccc(-c4cnccn4)c3)nc12 |  | 
> 10 | > 10 |  | Cn1cnnc1-c1cccc(Nc2cc(NC3CC3)n3ncc(C#N)c3n2)c1 |  | 
> 10 | 5.01 |  | N#Cc1cnn2c(NCC3CCOC3)cc(Nc3cccc(-n4cnnc4)c3)nc12 (stereo unspecified) |  | 
> 10 | 2.51 |  | N#Cc1cnn2c(NC3CC3)cc(Nc3cccc(-c4nn[nH]n4)c3)nc12 |  | 
0.251 | > 10 |  | N#Cc1cnn2c(NC3COC3)cc(Nc3cccc(-n4cnnc4)c3)nc12 |  | 
0.501 | 3.16 |  | N#Cc1cnn2c(NC3CC3)cc(Nc3cccc(-n4ccnn4)c3)nc12 |  | 
0.0398 | 0.631 |  | Cc1nncn1-c1cccc(Nc2cc(NC3CC3)n3ncc(C#N)c3n2)c1 |  | 
0.0398 | 0.398 |  | C[S+]([O-])Cc1cccc(Nc2cc(NC3CC3)n3ncc(C#N)c3n2)c1 (stereo unspecified) |  | 
0.2 | > 10 |  | N#Cc1cnn2c(NC3CC3)cc(Nc3cccc(-n4ncnn4)c3)nc12 |  | 
0.398 | > 10 |  | N#Cc1cnn2c(NC3CC(F)(F)C3)cc(Nc3cccc(-n4cnnc4)c3)nc12 |  | 
 | 0.158 | 2.8 | CC(=O)Nc1cccc(Nc2cc(NC3CC3)n3ncc(C#N)c3n2)c1 |  | 
 | ≥ 10 |  | CS(=N)(=O)Cc1cccc(Nc2cc(NC3CC3)n3ncc(C#N)c3n2)c1 (stereo unspecified) |  | 
0.794 | 2.51 |  | N#Cc1cnn2c(NC3CC3)cc(Nc3cccc(-c4nccs4)c3)nc12 |  | 
0.794 | > 10 |  | CC(C)(C#N)c1cccc(Nc2cc(NC3CC3)n3ncc(C#N)c3n2)c1 |  | 
3.98 | > 10 |  | N#Cc1cnn2c(NC3CC3)cc(Nc3cccc(Cn4cnnc4)c3)nc12 |  | 
